Measurements: ChEMBL document CHEMBL4308851, “Alkyl-guanidine Compounds as Potent Broad-Spectrum Antibacterial Agents: Chemical Library Extension and Biological Characterization” (J Med Chem, 2018)
In brackets after ≈: the same amount, converted by molar mass. Activity calls are given as the source filed them. The rule behind the calls is not given here.

Key:
[1] = test system: Acinetobacter baumannii; assay: Antibacterial activity against Acinetobacter baumannii isolate AC-54/97 after 18 hrs by microdilution broth method; type: functional; conditions: isolate AC-54/97, 18 h
[2] = test system: Enterococcus faecalis; assay: Antibacterial activity against Enterococcus faecalis ATCC 19433 after 18 hrs by microdilution broth method; type: functional; conditions: ATCC 19433, 18 h
[3] = test system: Escherichia coli; assay: Disruption of Escherichia coli MG1655 ATCC 47076 outer membrane integrity assessed as induction of NPN uptake after 30 mins by NPN fluorescence-based assay; type: functional, organism-based; conditions: K-12 substr. MG1655 ATCC 47076
[4] = test system: Escherichia coli; assay: Antibiofilm activity against Escherichia coli MG1655 ATCC 47076 assessed as effect on biofilm 3D structures at half MIC concentration after 24 hrs by AO-staining based confocal microscopy; type: functional, organism-based; conditions: K-12 substr. MG1655 ATCC 47076
[5] = test system: Pseudomonas aeruginosa; assay: Antibiofilm activity against Pseudomonas aeruginosa PAO1 ATCC 15692 at half MIC concentration after 24 hrs by crystal violet-based assay; type: functional, organism-based
[6] = test system: Acinetobacter baumannii; assay: Disruption of Acinetobacter baumannii ATCC 19606 outer membrane integrity assessed as induction of NPN uptake after 30 mins by NPN fluorescence-based assay; type: functional, organism-based; conditions: ATCC 19606 = CIP 70.34 = JCM 6841
[7] = test system: Klebsiella pneumoniae; assay: Antibacterial activity against Klebsiella pneumoniae isolate SI-081 after 18 hrs by microdilution broth method; type: functional; conditions: isolate SI-081, 18 h
[8] = test system: Escherichia coli; assay: Antibiofilm activity against Escherichia coli MG1655 ATCC 47076 at half MIC concentration after 24 hrs by crystal violet-based assay; type: functional, organism-based; conditions: K-12 substr. MG1655 ATCC 47076
[9] = Hemolytic activity against human erythrocytes assessed as induction of hemolysis at 64 ug/ml after 30 mins; type: cell-based, Erythrocyte; conditions: read-out: Activity
[10] = test system: Pseudomonas aeruginosa; assay: Disruption of inner membrane integrity in Pseudomonas aeruginosa PAO1 ATCC 15692 co-expressing pMP2200::PrrnB plasmid assessed as induction of OPNG conversion at 256 ug/ml measured at 10 mins intervals for 1 hr; type: functional, organism-based
[11] = test system: Staphylococcus aureus; assay: Antibacterial activity against Staphylococcus aureus ATCC 25923 after 18 hrs by microdilution broth method; type: functional; conditions: ATCC 25923, 18 h
[12] = test system: Acinetobacter baumannii; assay: Disruption of inner membrane integrity in Acinetobacter baumannii ATCC 19606 co-expressing pMP2200::PrrnB plasmid assessed as induction of […] conversion at 256 ug/ml measured at 10 mins intervals for 1 hr; type: functional, organism-based; conditions: ATCC 19606 = CIP 70.34 = JCM 6841
[13] = test system: Enterobacter cloacae; assay: Antibacterial activity against Enterobacter cloacae isolate VA-417/02 after 18 hrs by microdilution broth method; type: functional; conditions: isolate VA-417/02, 18 h
[14] = test system: Acinetobacter baumannii; assay: Antibiofilm activity against Acinetobacter baumannii ATCC 19606 assessed as effect on biofilm 3D structures at half MIC concentration after 24 hrs by AO-staining based confocal microscopy; type: functional, organism-based; conditions: ATCC 19606 = CIP 70.34 = JCM 6841
[15] = test system: Acinetobacter baumannii; assay: Antibiofilm activity against Acinetobacter baumannii ATCC 19606 at half MIC concentration after 24 hrs by crystal violet-based assay; type: functional, organism-based; conditions: ATCC 19606 = CIP 70.34 = JCM 6841
[16] = test system: Pseudomonas aeruginosa; assay: Antibacterial activity against Pseudomonas aeruginosa ATCC 27853 after 18 hrs by microdilution broth method; type: functional
[17] = test system: Acinetobacter baumannii; assay: Antibacterial activity against Acinetobacter baumannii ATCC 17978 after 18 hrs by microdilution broth method; type: functional
[18] = test system: Klebsiella pneumoniae; assay: Antibacterial activity against Klebsiella pneumoniae ATCC […] after 18 hrs by microdilution broth method; type: functional
[19] = test system: Stenotrophomonas maltophilia; assay: Antibacterial activity against Stenotrophomonas maltophilia isolate 634/08 after 18 hrs by microdilution broth method; type: functional; conditions: isolate 634/08, 18 h
[20] = test system: Pseudomonas aeruginosa; assay: Antibiofilm activity against Pseudomonas aeruginosa PAO1 ATCC 15692 assessed as effect on biofilm 3D structures at half MIC concentration after 24 hrs by AO-staining based confocal microscopy; type: functional, organism-based
[21] = test system: Escherichia coli; assay: Disruption of inner membrane integrity in Escherichia coli MG1655 assessed as induction of […] conversion at 256 ug/ml measured at 10 mins intervals for 1 hr; type: functional, organism-based; conditions: K-12 substr. MG1655
[22] = test system: Burkholderia cepacia; assay: Antibacterial activity against Burkholderia cepacia isolate SI-R2 after 18 hrs by microdilution broth method; type: functional; conditions: isolate SI-R2, 18 h
[23] = test system: Pseudomonas aeruginosa; assay: Disruption of Pseudomonas aeruginosa PAO1 ATCC 15692 outer membrane integrity assessed as induction of NPN uptake after 30 mins by NPN fluorescence-based assay; type: functional, organism-based
[24] = test system: Streptococcus pyogenes; assay: Antibacterial activity against Streptococcus pyogenes ATCC 12344 after 18 hrs by microdilution broth method; type: functional; conditions: ATCC 12344, 18 h
[25] = test system: Escherichia coli; assay: Antibacterial activity against Escherichia coli CCUG after 18 hrs by microdilution broth method
[26] = test system: Bacillus spizizenii; assay: Antibacterial activity against Bacillus subtilis ATCC 6633 after 18 hrs by microdilution broth method; type: functional; conditions: ATCC 6633, 18 h
[27] = test system: Escherichia coli; assay: Antibacterial activity against Escherichia coli CCUG after 24 hrs by microdilution broth method; type: functional
[28] = test system: Escherichia coli; assay: Bactericidal activity against Escherichia coli CCUG assessed as log reduction in CFU at 2 times MIC concentration after 1 hr by time kill assay; type: functional
[29] = Apparent permeability of the compound after 5 hrs by PAMPA; type: ADME
[30] = in vitro; conditions: human, Caco-2
Description: Efflux ratio of apparent permeability in human Caco2 cells at 10 uM after 120 mins by LC-MS/MS analysis

| Compound | MIC [1] [µg/mL] | MIC [2] [µg/mL] | Activity [3] | Activity [4] | Activity [5] | Activity [6] | MIC [7] [µg/mL] | Activity [8] | hemolysis at 0.5 h, 64 ug/ml [9] [%] | Activity [10] | MIC [11] [µg/mL] | Activity [12] | MIC [13] [µg/mL] | MIC ([16]; ATCC 27853, 18 h) [µg/mL] | MIC ([17]; ATCC 17978, 18 h) [µg/mL] | MIC [18] [µg/mL] | Activity [21] | MIC [24] [µg/mL] | MIC [25] [µg/mL] | MIC [26] [µg/mL] | other results |
| --- | --- | --- | --- | --- | --- | --- | --- | --- | --- | --- | --- | --- | --- | --- | --- | --- | --- | --- | --- | --- | --- |
| N=C(NCCCCCCCCN(CCCCCCCCNC(=N)NCC1CC1)C(=O)N(CCCCCCCCNC(=N)NCC1CC1)CCCCCCCCNC(=N)NCC1CC1)NCC1CC1 | 8 (≈ 8.39 µM) | 4 (≈ 4.2 µM) | Dose-dependent effect | inactive | inactive | Dose-dependent effect | 4 (≈ 4.2 µM) | inactive | 0 to 7 | inactive | 16 (≈ 16.8 µM) | inactive | 4 (≈ 4.2 µM) | 64 (≈ 67.1 µM) | 8 (≈ 8.39 µM) | 4 (≈ 4.2 µM) | inactive | 2 (≈ 2.1 µM) | 16 (≈ 16.8 µM) | 8 (≈ 8.39 µM) | Activity [14]: inactive; Activity [15]: inactive; MIC [19]: 8 µg/mL (≈ 8.39 µM); Activity [20]: inactive; MIC [22]: 32 µg/mL (≈ 33.6 µM); Activity [23]: Dose-dependent effect |
| CCCCCCCCCCCCOS(=O)(=O)[O-].[Na+] |  |  |  |  |  |  |  |  |  | Active |  | Active |  |  |  |  | Active |  |  |  |  |
| CCNC(=N)NCCCCCCCCN(CCCCCCCCNC(=N)NCC)C(=O)N(CCCCCCCCNC(=N)NCC)CCCCCCCCNC(=N)NCC | 8 (≈ 9.42 µM) | 1 (≈ 1.18 µM) |  |  |  |  | 8 (≈ 9.42 µM) |  |  |  | 0.5 (≈ 0.589 µM) |  | 2 (≈ 2.35 µM) | 32 (≈ 37.7 µM) | 16 (≈ 18.8 µM) | 4 (≈ 4.71 µM) |  | 0.25 (≈ 0.294 µM) | 2 (≈ 2.35 µM) | 0.5 (≈ 0.589 µM) | MIC [19]: 32 µg/mL (≈ 37.7 µM); MIC [22]: 32 µg/mL (≈ 37.7 µM) |
| N=C(N)NCCCCCCCCN(CCCCCCCCNC(=N)N)C(=O)N(CCCCCCCCNC(=N)N)CCCCCCCCNC(=N)N |  | 2 (≈ 2.71 µM) | Dose-dependent effect | inactive | inactive | Dose-dependent effect |  | inactive | 0 to 7 | inactive | 2 (≈ 2.71 µM) | inactive |  | 32 (≈ 43.4 µM) | 16 (≈ 21.7 µM) | 32 (≈ 43.4 µM) | inactive | 1 (≈ 1.36 µM) | 4 (≈ 5.43 µM) | 32 (≈ 43.4 µM) | Activity [14]: inactive; Activity [15]: inactive; Activity [20]: inactive; Activity [23]: Dose-dependent effect |
| N=C(N)NCCCCCCCCNCCCCCCCCNC(=N)NCC1CC1 |  | > 64 | Dose-dependent effect | inactive | inactive | Dose-dependent effect |  | inactive | 0 to 7 | inactive | > 64 | inactive |  | > 64 | > 64 | > 64 | inactive | > 64 | 64 (≈ 156 µM) | 64 (≈ 156 µM) | Activity [14]: inactive; Activity [15]: inactive; Activity [20]: inactive; Activity [23]: Dose-dependent effect |
| COLISTIN |  |  |  |  |  |  |  |  |  |  |  |  |  |  |  | 0.5 |  |  |  |  | MIC [27]: 0.5 µg/mL; Activity [28]: Active; MIC [16]: 0.5 µg/mL; MIC [17]: 1 µg/mL |
| CNC(=N)NCCCCCCCCN(CCCCCCCCNC(=N)N)C(=O)N(CCCCCCCCNC(=N)N)CCCCCCCCNC(=N)NC | 4 (≈ 5.23 µM) | 1 (≈ 1.31 µM) |  |  |  |  | 8 (≈ 10.5 µM) |  |  |  | 0.5 (≈ 0.653 µM) |  | 4 (≈ 5.23 µM) | 8 (≈ 10.5 µM) | 8 (≈ 10.5 µM) | 4 (≈ 5.23 µM) |  | 0.5 (≈ 0.653 µM) | 1 (≈ 1.31 µM) | 0.5 (≈ 0.653 µM) | MIC [19]: 16 µg/mL (≈ 20.9 µM); MIC [22]: 32 µg/mL (≈ 41.8 µM) |
| N=C(N)NCCCCCCCCCCN(CCCCCCCCCCNC(=N)NCC1CC1)C(=O)N(CCCCCCCCCCNC(=N)N)CCCCCCCCCCNC(=N)NCC1CC1 |  | 4 (≈ 4.18 µM) | Dose-dependent effect | inactive | inactive | Dose-dependent effect |  | inactive | 41 to 54 | inactive | 8 (≈ 8.35 µM) | inactive |  | 64 (≈ 66.8 µM) | 64 (≈ 66.8 µM) | 8 (≈ 8.35 µM) | inactive | 4 (≈ 4.18 µM) | 16 (≈ 16.7 µM) | 2 (≈ 2.09 µM) | Activity [14]: inactive; Activity [15]: inactive; Activity [20]: inactive; Activity [23]: Dose-dependent effect |
| CO[C@H]1/C=C/O[C@@]2(C)Oc3c(C)c(O)c4c(O)c(c5c(nc6cc(C)ccn65)c4c3C2=O)NC(=O)/C(C)=C\C=C\[C@H](C)[C@H](O)[C@@H](C)[C@@H](O)[C@@H](C)[C@H](OC(C)=O)[C@@H]1C [RIFAXIMIN] |  |  |  |  |  |  |  |  |  |  |  |  |  |  |  |  |  |  |  |  | Papp at 5 h [29]: 0.06 ×10⁻⁶ cm/s |
| CC(C)NCC(O)COc1cccc2ccccc12 (stereo not drawn) [PROPRANOLOL] |  |  |  |  |  |  |  |  |  |  |  |  |  |  |  |  |  |  |  |  | efflux ratio at 2 h, 10 µM [30]: 0.4 |
| CC(C)(C)OC(=O)/N=C(/NCCCCCCCCN(CCCCCCCCN/C(=N/C(=O)OC(C)(C)C)NC(=O)OC(C)(C)C)C(=O)N(CCCCCCCCN/C(=N/C(=O)OC(C)(C)C)N(CC1CC1)C(=O)OC(C)(C)C)CCCCCCCCN/C(=N/C(=O)OC(C)(C)C)N(CC1CC1)C(=O)OC(C)(C)C)NC(=O)OC(C)(C)C | ≥ 256 | ≥ 256 |  |  |  |  | ≥ 256 |  |  |  | ≥ 256 |  | ≥ 256 | ≥ 256 | ≥ 256 | ≥ 256 |  | ≥ 256 | ≥ 256 | ≥ 256 | MIC [19]: ≥ 256 µg/mL; MIC [22]: ≥ 256 µg/mL |
